Assay results from patent US7256201B2, “Selective estrogen receptor-β ligands” (AstraZeneca AB, priority 2000, dated 2007).

What was measured:
human recombinant ERβ = target: T1, human recombinant ERβ (Homo sapiens, UniProt Q92731); experiment: Fluorescence polarization estrogen receptor (ERFP) binding assay, ERβ; conditions: for Ki: competition with Fluormone ES2, IC50 converted to Ki by Kenakin formula, read-out: FP β-ER Ki; for FP Selectivity: ratio α-ER Ki / β-ER Ki
T1 construct: purchased PanVera (Madison, Wis.)
Procedure: (§1) A homogeneous mix-and-measure estrogen receptor (ER) binding assay which utilizes fluorescence polarization (FP) technology is used to identify compounds with affinity for the estrogen receptor. Purchased from PanVera (Madison, Wis.), assay reagents include purified human recombinant ERα, human recombinant ERβ, ES2 screening buffer (100 mM potassium phosphate, pH 7.4, 100 μg/mL bovine gamma globulin), and Fluormone™ ES2.
(§2) For competition binding experiments, dilutions of test compounds are prepared at 2× the final assay concentration in 0.2% DMSO in ES2 Screening buffer on TECAN Genosys, and 25 μL compound/well is dispensed into black Costar ½ volume 96-well plates. Dependent upon a lot specific Kd determination, 10-40 nM ERα or 10-40 nM ERβ and 1 nM Fluormone ES2 are then added to these plates in a final assay volume of 50 μL/well. Plates are gently shaken for at least 5 minutes to mix and incubated for at least 1 hr 45 minutes to achieve equilibrium. (Reaction mixtures are stable for up to 5 hours). After centrifugation to remove air bubbles, plates are read on an LJL Analyst or Acquest equipped with Criterion software at the following settings: Fluorescence Polarization Mode; Static Polarizer on Excitation Side; Dynamic Polarizer on Emission Side; Excitation λ=485×/−5 10 nm; Emission λ=520+/−12.5 nm.
(§3) Polarized fluorescence intensity values are collected and subsequently converted electronically to millipolarization (mp) values. Following data reduction and normalization with Excel and/or Prism software, % Ctrl values at the various test concentrations are used to obtain IC50 values via non-linear regression analysis of a four-parameter logistic equation.
(§4) Because ligand depletion is a consideration in this assay (˜40-60% input ES2 is bound in the assay), IC50 values are converted to Ki values through application of the Kenakin formula, as outlined in the reference below, rather than via the more routinely-used Cheng-Prusoff formula.

human recombinant ERα = target: T2, human recombinant ERα (Homo sapiens, UniProt P03372); experiment: Fluorescence polarization estrogen receptor (ERFP) binding assay, ERα; conditions: competition with Fluormone ES2; IC50 converted to Ki by Kenakin formula; read-out: FP α-ER Ki
T2 construct: purchased PanVera (Madison, Wis.)
T2 sequence (P03372 1-595): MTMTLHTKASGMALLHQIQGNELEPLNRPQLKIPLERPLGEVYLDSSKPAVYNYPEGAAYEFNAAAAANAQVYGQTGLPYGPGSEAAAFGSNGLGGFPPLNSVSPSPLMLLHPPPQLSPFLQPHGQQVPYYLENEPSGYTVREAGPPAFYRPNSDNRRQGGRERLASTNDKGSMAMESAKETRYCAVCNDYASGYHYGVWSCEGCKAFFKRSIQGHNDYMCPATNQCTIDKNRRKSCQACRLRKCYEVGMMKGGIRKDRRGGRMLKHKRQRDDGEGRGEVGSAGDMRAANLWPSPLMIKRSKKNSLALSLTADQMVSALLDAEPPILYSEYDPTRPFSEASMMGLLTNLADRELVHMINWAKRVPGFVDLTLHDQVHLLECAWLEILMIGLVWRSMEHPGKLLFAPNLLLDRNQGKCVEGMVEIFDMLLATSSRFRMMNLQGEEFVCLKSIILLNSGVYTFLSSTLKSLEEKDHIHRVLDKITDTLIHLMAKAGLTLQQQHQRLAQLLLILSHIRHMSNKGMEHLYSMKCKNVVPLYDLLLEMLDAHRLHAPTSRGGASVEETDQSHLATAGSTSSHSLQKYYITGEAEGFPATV
Procedure: as §1, §2, §3, §4

βER = target: T3, βER (Homo sapiens, UniProt Q92731); experiment: Cell-based assay for ER transcriptional activity (ERE β-gal reporter), βER-transfected 293 cells; conditions: for EC50 / ERE β-ER Max: 293 cells transfected with βER and ERE reporter; for ERE β-ER Max: maximal response, unit assumed; for ERE Selectivity: ratio α-ER EC50 / β-ER EC50
T3 construct: expressed in transfected cells; host or cells: 293 cells (Human Embryonic Kidney, ATCC CRL-1573)
Procedure: (§5) ERs are ligand-dependent transcription factors that bind the promoter regions of genes at a consensus DNA sequence called the estrogen responsive element (ERE). The ER agonist or antagonist activity of a drug was determined by measuring the amount of reporter enzyme activity expressed from a plasmid under the control of an estrogen-responsive element when cells transiently transfected with ER and the reporter plasmid were exposed to drug. These experiments were conducted according to the following methods.
(§6) Estrogen Receptors alpha (αER, Gen Bank accession #M12674), and beta (βER, Gen Bank #X99101 were cloned into the expression vector pSG5 (Stratagene). A trimer of the vitellogenin-gene estrogen response element (vitERE) was synthesized as an oligonucleotide and attached to a beta-globin basal promoter in a construct named pERE3 gal. This response element and promoter were removed from pERE3 gal by digestion with the endonucleases SpeI (filled with Klenow fragment) and HindIII. This blunt/Hind III fragment was cloned into the β-galactosidase (β-gal) enhancer reporter plasmid (pBGALenh, Stratagene). αER and βER plasmids were purified using a the Endo Free Maxi Kit (Qiagen), and the DNA concentration and purity (A260/280 ratio) were determined spectrophotometrically (Pharmacia). Only DNA with A260/280 ratio of 1.8 and a concentration of >1 ug/uL was used for transfections.
(§7) All Transfections are performed in 293 cells (Human Embryonic Kidney cells ATCC #CRL-1573). Cells are grown in DMEM supplemented with 10% FBS, glutamine, sodium pyruvate and penicilin/streptomycin. Cells are grown to 70% confluency and split 1:4.
(§8) • 1. 293 cells are split the night before onto collagen I-coated 150 mm tissue-culture plates (Biocoat, Becton Dickinson #354551) at a density of 60-70% in DMEM Mediatech 17-205-CV) 10% charcoal-stripped FBS (biocell #6201-31). Approximately 1×10^7 cells/plate will yield 70% confluency. • 2. The next morning, 1 hour prior to transfection, the media is changed to fresh DMEM 10% FBS stripped and supplements. • 3. Transfections are performed using the Profection Kit (Promega #E1200). This kit is based on the calcium-phosphate-mediated transfection technique. Reagents are added in sterile polystyrene tubes in the following order:
(§9) Solution A • 15 μg αER or βER • 45 μg Reporter (pBGALenh or ERE3) • 1.5 mL Sterile Water • 186 μL CaCl2 • *Mix gently
(§10) Solution B • 1.5 mL 2× Hank's Buffered Salt Solution • 4. Using a vortex set on low, add solution A to solution B dropwise. The resulting solution should become milky in color. It is important to achieve thorough mixing. The solution is allowed to settle for 30 minutes, then vortexed before adding the solution to cells. • 5. Add the mixture to 150 mm plates dropwise. Mix well by rocking plates back and forth and side to side gently. After an hour, a very fine precipitate should be seen floating on and above cells under 20× magnification. If this precipitate is not observed, the transfection will not be effective. Incubate the cells for 12 hours. Receptor Stimulation: • 1. The day after transfection, cells are washed 2× with calcium- and magnesium-free Mg free PBS containing 1 mM EGTA (pH 7.6). Cells are trypsinized for 2 min with 3 mL of trypsin-EDTA. Trypsin is neutralized with DMEM 10% FCS. Cells are pelleted at 1000×g for 5 min. The cell pellet is then resuspended in 5 mL DMEM plus 2% phenol-red-free FCS supplemented with glutamine, pyruvate, and Penn/Strep. • 2. 50 μl of the resulting cell suspension is plated into each well of 96-well tissue culture dishes (Biocoat B&D #354407) using a multi-channel pipettor. The dishes have been previously loaded with 50 μL of DMSO-solubilized test compounds at twice the test concentration in DMEM. Data reported are either n=4 wells (single poke) and n=2 wells (9-point concentration-response curves). • 3. Cells are incubated overnight at 37° C. in the selected compounds. Reporter Assay: • 1. […]

αER = target: T4, αER (Homo sapiens, UniProt P03372); experiment: Cell-based assay for ER transcriptional activity (ERE β-gal reporter), αER-transfected 293 cells; conditions: 293 cells transfected with αER and ERE reporter; for ERE α-ER Max: maximal response, unit assumed; for EC50: read-out: ERE α-ER EC50
T4 construct: expressed in transfected cells; host or cells: 293 cells (Human Embryonic Kidney, ATCC CRL-1573)
T4 sequence (P03372 1-595): T2 sequence (P03372 1-595)
Procedure: as §5, §6, §7, §8, §9, §10

T3 sequence (Q92731 54-530 limits assumed): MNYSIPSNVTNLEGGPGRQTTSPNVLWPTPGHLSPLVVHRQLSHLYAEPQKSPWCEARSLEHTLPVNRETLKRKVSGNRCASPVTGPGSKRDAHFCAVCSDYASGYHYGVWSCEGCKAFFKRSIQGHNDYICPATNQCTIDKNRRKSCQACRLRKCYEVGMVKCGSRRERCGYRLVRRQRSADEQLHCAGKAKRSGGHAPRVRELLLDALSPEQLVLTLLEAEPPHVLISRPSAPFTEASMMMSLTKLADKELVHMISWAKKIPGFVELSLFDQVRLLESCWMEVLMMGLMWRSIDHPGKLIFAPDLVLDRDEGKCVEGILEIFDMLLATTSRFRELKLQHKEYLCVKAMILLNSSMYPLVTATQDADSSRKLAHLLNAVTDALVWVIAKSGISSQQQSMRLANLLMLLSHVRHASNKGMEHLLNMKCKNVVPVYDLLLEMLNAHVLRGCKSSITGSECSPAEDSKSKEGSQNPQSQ
T1 sequence (Q92731 whole entry): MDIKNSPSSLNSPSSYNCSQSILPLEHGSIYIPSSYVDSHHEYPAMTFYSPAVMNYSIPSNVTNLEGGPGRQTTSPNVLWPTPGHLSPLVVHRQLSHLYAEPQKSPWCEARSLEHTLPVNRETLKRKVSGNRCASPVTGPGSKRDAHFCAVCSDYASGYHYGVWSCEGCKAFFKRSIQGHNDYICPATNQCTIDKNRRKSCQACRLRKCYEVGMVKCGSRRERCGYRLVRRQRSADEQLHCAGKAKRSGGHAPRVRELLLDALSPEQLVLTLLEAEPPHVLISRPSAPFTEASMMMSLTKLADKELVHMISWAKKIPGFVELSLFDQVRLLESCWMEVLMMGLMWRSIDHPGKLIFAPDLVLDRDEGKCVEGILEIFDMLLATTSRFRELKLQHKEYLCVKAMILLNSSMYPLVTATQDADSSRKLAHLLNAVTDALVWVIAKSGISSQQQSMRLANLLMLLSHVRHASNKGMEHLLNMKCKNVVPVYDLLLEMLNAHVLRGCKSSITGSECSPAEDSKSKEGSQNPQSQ

Ki (human recombinant ERβ) [nM] | FP Selectivity (human recombinant ERβ) | Ki (human recombinant ERα) [nM] | EC50 (βER) [nM] | ERE β-ER Max (βER) [%] | ERE Selectivity (βER) | ERE α-ER Max (αER) [%] | EC50 (αER) [nM] | Compound
190 | 0.9 | 170 | 34 | 90 | 0.2 | 54 | 6.8 | 6-Hydroxy-2-(4-hydroxyphenyl)-1-phenylisoindoline and 5-hydroxy-2-(4-hydroxyphenyl)-1-phenylisoindoline [Example 27]
375 | 2.7 | 1000 | – | – | – | – | – | Oc1ccc(N2CCc3cc(O)ccc3C2)cc1 [Example 1, 2-(4-Hydroxyphenyl)-1,2,3,4-tetrahydroisoquinoline-6-ol]
18 | 2.7 | 48 | – | – | – | – | – | Oc1ccc(N2CCc3cc(O)ccc3C2)c(Cl)c1 [Example 2, 2-(2-Chloro-4hydroxyphenyl)-1,2,3,4-tetrahydroisoquinoline-6-ol]
8 | 7.4 | 60 | 35.7 | 103 | 0.8 | 93 | 28.2 | Cc1cc(O)ccc1N1CCc2cc(O)ccc2C1 [Example 3, 2-(4-Hydroxy-2-methylphenyl)-1,2,3,4-tetrahydroisoquinolin-6-ol]
459 | 1.4 | 655 | – | – | – | – | – | COc1ccc([N+](=O)[O-])cc1N1CCc2cc(O)ccc2C1 [Example 4, 2-(2-Methoxy-5-nitrophenyl)-1,2,3,4-tetrahydroisoquinolin-6-ol]
13 | 4.8 | 62 | – | – | – | – | – | O=[N+]([O-])c1cc(O)ccc1N1CCc2cc(O)ccc2C1 [Example 5, 2-(4-Hydroxy-2-nitrophenyl)-1,2,3,4-tetrahydroisoquinolin-6-ol]
10 | 0.9 | 10 | 7.6 | 105 | 0.1 | 100 | 0.6 | Oc1ccc(N2CCc3cc(O)ccc3C2c2ccccc2)cc1 (centres unmarked) [Example 6, 2-(4Hydroxyphenyl)-1-phenyl-1,2,3,4-tetrahydroisoquinolin-6-ol]
35 | 1.8 | 62 | – | – | – | – | – | Cc1ccc(C2c3ccc(O)cc3CCN2c2ccc(O)cc2)c(C)c1 (centres unmarked) [Example 7, 1-(2,4-Dimethylphenyl)-2-(4-hydroxyphenyl)-1,2,3,4-tetrahydroisoquinolin-6-ol]
39 | 0.5 | 18 | – | – | – | – | – | CSc1ccc(C2c3ccc(O)cc3CCN2c2ccc(O)cc2)cc1 (centres unmarked) [Example 8, 2-(4-Hydroxyphenyl)-1-(4-methylsulfanylphenyl)-1,2,3,4-tetrahydroisoquinolin-6-ol]
4.9 | 1.6 | 8 | – | – | – | – | – | Oc1ccc(N2CCc3cc(O)ccc3C2c2ccc(C(F)(F)F)cc2)cc1 (centres unmarked) [Example 9, 2-(4-Hydroxyphenyl)-1-(4-trifluoromethylphenyl)-1,2,3,4-tetrahydroisoquinolin-6-ol]
7 | 1.6 | 11 | – | 44 | – | 95 | – | Oc1ccc(N2CCc3cc(O)ccc3C2c2ccc(Cl)cc2Cl)cc1 (centres unmarked) [Example 10, 1-(2,4-Dichlorophenyl)-2-(4-hydroxyphenyl)-1,2,3,4-tetrahydroisoquinolin-6-ol]
9 | 1.1 | 10 | – | – | – | – | – | CCc1ccc(C2c3ccc(O)cc3CCN2c2ccc(O)cc2)cc1 (centres unmarked) [Example 11, 1-(4-Ethylphenyl)-2-(4-hydroxyphenyl)-1,2,3,4-tetrahydroisoquinolin-6-ol]
18 | 0.8 | 15 | – | – | – | – | – | Oc1ccc(N2CCc3cc(O)ccc3C2Cc2ccccc2)cc1 (centres unmarked) [Example 16, 1-Benzyl-2-(4-hydroxy-phenyl)-1,2,3,4-tetrahydro-isoquinolin-6-ol]
3.5 | 3.5 | 12 | – | – | – | – | – | Cc1ccc(N2CCc3cc(O)ccc3C2c2cccs2)cc1O (centres unmarked) [Example 22, 2-(3-Hydroxy-4-methyl-phenyl)-1-thiophen-2-yl-1,2,3,4-tetrahydro-isoquinolin-6-ol]
229 | 2.9 | 660 | – | – | – | – | – | O=C(c1ccc(O)cc1)N1CCc2cc(O)ccc2C1 [Example 23, (6-Hydroxy-3,4-dihydro-1H-isoquinolin-2-yl)-(4-hydroxy-phenyl)-methanone]
215 | 3.1 | 660 | – | – | – | – | – | O=C(c1ccc(O)cc1)N1CCc2ccc(O)cc2C1 [Example 24, (7-Hydroxy-3,4-dihydro-1H-isoquinolin-2-yl)-(4-hydroxy-phenyl)-methanone]
